{
  "source": "paper PMC10987949",
  "about": "“Inhibition of HIV-1 release by ADAM metalloproteinase inhibitors” (Frontiers in Microbiology, 2024)",
  "key": {"HIV-1BAL": {"system": "HIV-1BAL", "assay": "HIV-1BAL infection of CD8-depleted PBMC, FACS (intracellular p24, CD4, CD62L)", "assay_type": "cell-based", "conditions": "day 6; 0.5μM compounds", "from_the_text": "The use of healthy human peripheral blood mononuclear cells (PBMC) is approved by the Department of Transfusion Medicine at the Clinical Center of National Institutes of Health. The use of PBMC from HIV-1 infected individuals for the study was approved under protocol #02-I-0202 by the Institutional Review Board (IRB) of National Institutes of Health with written informed consent from all donors. Peripheral blood mononuclear cells (PBMCs) from anonymous healthy donors were isolated by Ficoll-Paque gradient, and cultured in RPMI 1640 supplemented with 10% FBS, 1%Penicillin/streptomycin, 1% HEPES buffer and 20 U/mL IL-2 (culture media); and stimulated with 0.2 μg/mL anti-CD3 antibody (okt3) for 2 days. CD8^+ T cells were depleted prior to infection using the Stemcell CD8 positive selection kit according to manufacturer’s instructions. CD8-depleted PBMCs were plated at 2×10^6 cells/ml in 48-well plates in 1 mL culture media with various inhibitors for 60 min prior to the addition of ~80 TCID50 HIV-1BAL or HIV-1LAI. Inhibitors were replenished during media change every 3 days. The infections were proceeded with or without inhibitors for 6 days or otherwise specified number of days and then analyzed by FACS staining using fluorescent labeled CD4-BV510, CD62L-APC and CD3-PEC7 antibodies (BD Biosciences). Cells were then washed and permeabilized with CytoFix/CytoPerm (BD Biosciences) solution before intracellular staining for HIV p24 antigen using FITC conjugated anti-p24 antibody clone KC57 (Beckman Coulter, catalog 6604665). All assays were performed with cell viabilities >80%. Replication competent HIV-1 viruses were obtained from the NIH AIDS Reagent Program^4, and expanded by infecting activated CD8-depleted PBMCs, and TCID50 was determined by p24 ELISA."}, "[1]": {"biological_target": "T1, recombinant HIV-1 protease (Human immunodeficiency virus type 1 group M subtype B, UniProt P04585)", "T1 construct": "recombinant HIV-1 protease; purchased Sigma-Aldrich SRP2151", "assay": "HIV-1 protease fluorogenic substrate cleavage", "assay_type": "biochemical", "conditions": "100nM saquinavir or nelfinavir; MMP inhibitors up to 10uM", "procedure": "HIV-1 protease enzymatic activity was assayed in black 96-well plates at room temperature using a Synergy_h1 fluorescent plate reader with 340 nm excitation and 490 nm emission wavelengths (BioTek). Each enzymatic reaction consisted of a mixture of 100 ng of recombinant HIV-1 protease (Sigma-Aldrich catalog SRP2151), 5 μM concentration of a fluorogenic substrate Arg-Glu(EDANS)-[…]DABCYL)-Arg (Sigma-aldrich catalog H6660), and various concentrations of inhibitor compounds in 100 μL of assay buffer (0.15 M sodium chloride, 1.0 mM EDTA, 1.0 mM DTT, 0.1 M sodium acetate, pH 5.0). The fluorescence of the cleavage reaction was continuously read at every 30 s for a total of 40 min."}, "PBMC": {"system": "PBMC", "assay": "PBMC viability (AO/PI staining)", "assay_type": "cell-based, human", "conditions": "for PBMC viability at 24hr post treatment: 10-500 μM of MMP inhibitors for 24hours", "procedure": "PBMC from de-identified healthy donors were obtained with informed consent from the Department of Transfusion Medicine, National Institutes of Health under Biological reagent Registry RD-14-IX-12 approved by NIH biological safety board. CD8-depleted PBMCs, either stimulated or non-stimulated with 10 μg/mL phytohaemagglutinin (PHA) or anti-CD3 antibody (with or without conjugated beads), were plated at 2×10^6 cells/ml in 48 well plates in RPMI 1640 + 10%FBS (R10) to a final volume of 1 mL in each well. IL-2 was added at a final concentration of 20 U/mL. CD3 antibody okt3 was used at ~0.2 μg/mL final concentration. Compounds were prepared in appropriate solvents according to the manufacturer’s instructions, diluted to working concentrations using RPMI 1640 + 10%FBS (R10), and added to the cell cultures for 6–24 h for CD62L shedding, and 48 h for TNF-α release. Supernatants were collected and assessed using either the CD62L or TNF-α Duo Set ELISA kit according to manufacturer’s instructions (R&D Systems, Inc.). The viability of cells treated with compounds was assessed by acridine orange / propidiom iodide (AO/PI Logosbio catalog F23001) staining using Luna-FL cell counter following the manufacture’s instruction.^2"}, "CD62L shedding [2]": {"system": "CD62L shedding", "assay": "Soluble CD62L ELISA, anti-CD3/PHA stimulated PBMC or CD4 T cells", "assay_type": "cell-based, human", "procedure": "PBMC from de-identified healthy donors were obtained with informed consent from the Department of Transfusion Medicine, National Institutes of Health under Biological reagent Registry RD-14-IX-12 approved by NIH biological safety board. […] IL-2 was added at a final concentration of 20 U/mL. CD3 antibody okt3 was used at ~0.2 μg/mL final concentration. […] Supernatants were collected and assessed using either the CD62L or TNF-α Duo Set ELISA kit according to manufacturer’s instructions (R&D Systems, Inc.). The viability of cells treated with compounds was assessed by acridine orange / propidiom iodide (AO/PI Logosbio catalog F23001) staining using Luna-FL cell counter following the manufacture’s instruction.^2"}, "CD62L shedding [3]": {"system": "CD62L shedding", "assay": "Soluble CD62L ELISA, unstimulated PBMC", "assay_type": "cell-based, human", "conditions": "10 μM compound, non-stimulated cells, ELISA", "procedure": "PBMC from de-identified healthy donors were obtained with informed consent from the Department of Transfusion Medicine, National Institutes of Health under Biological reagent Registry RD-14-IX-12 approved by NIH biological safety board. CD8-depleted PBMCs, either stimulated or non-stimulated with 10 μg/mL phytohaemagglutinin (PHA) or anti-CD3 antibody (with or without conjugated beads), were plated at 2×10^6 cells/ml in 48 well plates in RPMI 1640 + 10%FBS (R10) to a final volume of 1 mL in each well. IL-2 was added at a final concentration of 20 U/mL. CD3 antibody okt3 was used at ~0.2 μg/mL final concentration. […] Supernatants were collected and assessed using either the CD62L or TNF-α Duo Set ELISA kit according to manufacturer's instructions (R&D Systems, Inc.). The viability of cells treated with compounds was assessed by acridine orange / propidiom iodide (AO/PI Logosbio catalog F23001) staining using Luna-FL cell counter following the manufacture's instruction.^2 […] Supplemental Figure 1. CD62L shedding from unstimulated PBMC. A) Soluble CD62L in the supernatant of unstimulated PBMC was measured By ELISA (R&D systems, Inc) after 24 hour treatment in the presence of 10 μM of […]), aminopeptidase (AP) protease inhibitors, respectively, or their untreated controls. Statistics were calculated using unpaired parametric student t-test between individual treatment and DMSO control. […] B) Viability of PBMC treated with 10-500 μM of MMP inhibitors for 24hours. […] Untreated DMSO AEBSF 3,4-Dichloroisocouman Granzyme B Inhibitor II Granzyme B Inhibitor IV Aprotinin […] 3 4 CD62L shedding from unstimulated PBMC Soluble CD62L (ng/ml) Inhibitor Class […] GI254023X 10 GI254023X 100 […] GI254023X 1000 GW280264X 10 GW280264X 100 […] GW280264X 1000 Marimastat 10 Marimastat 100 Marimastat 250 […]"}},
  "data": [
    {"compound": "Cc1c(O)cccc1C(=O)N[C@@H](CSc1ccccc1)[C@H](O)CN1C[C@H]2CCCC[C@H]2C[C@H]1C(=O)NC(C)(C)C", "note": "[nelfinavir]", "values": [
      {"measurement": "p24 staining in HIV-1BAL infection of PBMC", "setting": "HIV-1BAL", "result": "no significant staining"},
      {"measurement": "effect on HIV protease cleavage of fluorogenic substrate", "setting": "[1]", "result": "suppressed the substrate cleavage by HIV protease"},
      {"measurement": "PBMC viability at day 3 post treatment", "setting": "PBMC; 10uM", "result": "significant reduced cell viability"},
      {"measurement": "effect on CD62L shedding from stimulated PBMC", "setting": "CD62L shedding [2]; titration of HAART compounds, concentration range tested", "result": "did not inhibit CD62L shedding"}
    ]},
    {"compound": "CNC(=O)[C@@H](NC(=O)[C@H](CC(C)C)[C@H](O)C(=O)NO)C(C)(C)C", "note": "[Marimastat]", "values": [
      {"measurement": "inhibition at 10 µM", "setting": "CD62L shedding [3]; Homo sapiens, PBMC, read-out: Shedding inhibition Non-stim.", "result": "> 50", "unit": "%"},
      {"measurement": "PBMC viability at day 6 post infection with HIV-1 BAL", "setting": "PBMC; 50uM", "result": "significant loss in cell viability"},
      {"measurement": "PBMC viability at 24hr post treatment", "setting": "PBMC", "result": "No significant decrease in the viability"},
      {"measurement": "inhibition at 10 µM", "setting": "CD62L shedding [2]; Homo sapiens, 10 μM compound, stimulated cells, ELISA", "result": "> 50", "unit": "%"}
    ]},
    {"compound": "GW280264X", "values": [
      {"measurement": "Shedding inhibition Non-stim.", "setting": "CD62L shedding [3]", "result": "+/− (<20)"},
      {"measurement": "PBMC viability at 24hr post treatment", "setting": "PBMC", "result": "No significant decrease in the viability"},
      {"measurement": "Shedding inhibition Stimulated", "setting": "CD62L shedding [2]; 10 μM compound, stimulated cells, ELISA", "result": "+/− (<20)"}
    ]},
    {"compound": "CC(C)(C)NC(=O)[C@@H]1C[C@@H]2CCCC[C@@H]2CN1C[C@@H](O)[C@H](Cc1ccccc1)NC(=O)[C@H](CC(N)=O)NC(=O)c1ccc2ccccc2n1", "note": "[saquinavir]", "values": [
      {"measurement": "effect on HIV protease cleavage of fluorogenic substrate", "setting": "[1]", "result": "suppressed the substrate cleavage by HIV protease"}
    ]}
  ]
}
